Literature values as cited in patent US20070053968A1 (Wyeth, priority 2005, published 2007).

Experiments:
dopamine re-uptake = dopamine re-uptake (Homo sapiens, UniProt Q01959)
[1] = target: neuronal norepinephrine re-uptake (Homo sapiens, UniProt P23975)
[2] = compared with ODV free base
[3] = oral administration, versus venlafaxine, ODV or other salts of ODV
[4] = compared with ODV free base; remark: listed apart in the source
[5] = target: H1-histaminergic receptors (Homo sapiens, UniProt P35367)
[6] = versus venlafaxine

dopamine re-uptake, sequence (Q01959 whole entry): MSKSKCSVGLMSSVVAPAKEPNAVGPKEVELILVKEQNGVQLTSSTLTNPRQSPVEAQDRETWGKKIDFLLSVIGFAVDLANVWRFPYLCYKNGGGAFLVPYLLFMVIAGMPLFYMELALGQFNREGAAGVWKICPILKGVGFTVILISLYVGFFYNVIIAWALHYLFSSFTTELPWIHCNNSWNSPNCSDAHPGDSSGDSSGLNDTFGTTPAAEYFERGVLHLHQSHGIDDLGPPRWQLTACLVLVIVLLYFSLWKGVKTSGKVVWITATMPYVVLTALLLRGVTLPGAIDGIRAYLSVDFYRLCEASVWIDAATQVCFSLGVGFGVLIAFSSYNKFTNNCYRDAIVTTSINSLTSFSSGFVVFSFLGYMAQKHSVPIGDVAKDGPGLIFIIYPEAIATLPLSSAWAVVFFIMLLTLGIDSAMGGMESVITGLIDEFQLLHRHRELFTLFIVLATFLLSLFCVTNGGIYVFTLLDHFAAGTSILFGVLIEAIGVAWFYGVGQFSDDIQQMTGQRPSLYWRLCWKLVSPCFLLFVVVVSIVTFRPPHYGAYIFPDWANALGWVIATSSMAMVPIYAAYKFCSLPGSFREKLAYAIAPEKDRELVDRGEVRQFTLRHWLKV
H1-histaminergic receptors, sequence (P35367 whole entry): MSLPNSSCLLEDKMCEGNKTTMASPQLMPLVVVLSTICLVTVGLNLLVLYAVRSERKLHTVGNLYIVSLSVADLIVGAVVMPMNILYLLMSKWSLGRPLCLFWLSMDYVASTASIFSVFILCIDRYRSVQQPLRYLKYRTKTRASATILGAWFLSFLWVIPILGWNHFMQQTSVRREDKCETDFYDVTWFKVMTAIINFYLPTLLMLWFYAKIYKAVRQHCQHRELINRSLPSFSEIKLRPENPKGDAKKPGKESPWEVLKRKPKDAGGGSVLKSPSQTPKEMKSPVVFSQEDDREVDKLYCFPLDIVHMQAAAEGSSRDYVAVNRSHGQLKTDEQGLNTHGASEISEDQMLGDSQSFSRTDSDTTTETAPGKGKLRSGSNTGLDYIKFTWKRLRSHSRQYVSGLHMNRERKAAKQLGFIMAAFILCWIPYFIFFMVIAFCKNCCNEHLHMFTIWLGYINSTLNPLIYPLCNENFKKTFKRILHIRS
neuronal norepinephrine re-uptake, sequence (P23975 whole entry): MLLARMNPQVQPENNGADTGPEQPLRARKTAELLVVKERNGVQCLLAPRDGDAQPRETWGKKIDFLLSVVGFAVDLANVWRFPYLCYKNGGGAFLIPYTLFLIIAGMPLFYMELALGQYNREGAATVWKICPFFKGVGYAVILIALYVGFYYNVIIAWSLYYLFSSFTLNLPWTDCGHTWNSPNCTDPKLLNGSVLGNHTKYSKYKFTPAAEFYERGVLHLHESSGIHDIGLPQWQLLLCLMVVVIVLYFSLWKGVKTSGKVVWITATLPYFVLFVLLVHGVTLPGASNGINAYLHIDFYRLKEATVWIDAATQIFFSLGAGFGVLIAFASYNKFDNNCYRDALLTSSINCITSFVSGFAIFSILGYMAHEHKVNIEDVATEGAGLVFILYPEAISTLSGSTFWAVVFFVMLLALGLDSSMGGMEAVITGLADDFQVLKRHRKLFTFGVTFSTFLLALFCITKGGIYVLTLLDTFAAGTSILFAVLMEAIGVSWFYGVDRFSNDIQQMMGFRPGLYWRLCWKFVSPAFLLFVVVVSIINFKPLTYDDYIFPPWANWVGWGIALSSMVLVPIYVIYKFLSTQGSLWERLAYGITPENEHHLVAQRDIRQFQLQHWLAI

Row | SMILES | inhibition of dopamine re-uptake (dopamine re-uptake) | inhibition of neuronal norepinephrine re-uptake [1] | affinity for α1-adrenergic receptors (α1-adrenergic receptors) | bioavailability [2] | incidence of nausea, vomiting, diarrhea, abdominal pain, headache, vaso-vagal malaise, and/or trismus [3] | permeability [4] | affinity for H1-histaminergic receptors [5] | affinity for muscarinic receptors (muscarinic receptors) | solubility compared with venlafaxine [6]
1 | COc1ccc(C(CN(C)C)C2(O)CCCCC2)cc1 (racemic) [venlafaxine, (±)-1-[2-(dimethylamino)-1-(4-methoxyphenyl)ethyl]-cyclohexanol] | weak inhibitors | potent inhibitors | no significant affinity |  |  |  |  |  | 
2 | CN(C)CC(c1ccc(O)cc1)C1(O)CCCCC1.O=C(O)CCC(=O)O (centres unmarked) [ODV succinate] |  |  |  | improved | lower incidence | improved |  |  | 
3 | CN(C)CC(c1ccc(O)cc1)C1(O)CCCCC1 (centres unmarked) [ODV] | weak inhibitors |  | no significant affinity |  |  |  | no significant affinity | no significant affinity | more soluble
